# ChEMBL document CHEMBL1275266, “Synthesis, cytotoxic activities and DNA binding properties of β-carboline derivatives” (Eur J Med Chem, 2010)
# Calls of active or inactive are those of the source. The calls are words filed in the database; no cut-off is given here.
# Experiments:
# CWR22R = assay: Cytotoxicity against human 22Rv1 cells by MTT assay; format: functional, cell-based
# A-375 = assay: Cytotoxicity against human A375 cells by MTT assay; format: functional, cell-based
# 786-0 = assay: Cytotoxicity against human 786-0 cells by MTT assay; format: functional, cell-based
# HepG2 = assay: Cytotoxicity against human HepG2 cells by MTT assay; format: functional, cell-based
# HT-29 = assay: Cytotoxicity against human HT-29 cells by MTT assay; format: functional, cell-based
# KB = assay: Cytotoxicity against human KB cells by MTT assay; format: functional, cell-based
# BGC-823 = assay: Cytotoxicity against human BGC823 cells by MTT assay; format: functional, cell-based
# MCF7 = assay: Cytotoxicity against human MCF7 cells by MTT assay; format: functional, cell-based
# 769-P = assay: Cytotoxicity against human 769-P cells by MTT assay; format: functional, cell-based
# OS-RC-2 = assay: Cytotoxicity against human OS-RC2 cells by MTT assay; format: functional, cell-based
# Calf thymus DNA [1] = assay: Binding affinity to calf thymus DNA assessed as change in melting temperature at 20 uM by thermal denaturation assay; format: nucleic-acid assay; settings: Bos taurus
# Calf thymus DNA [2] = assay: Binding affinity to calf thymus DNA at 10 uM by fluorescence spectroscopy; format: nucleic-acid assay; settings: Bos taurus
# Calf thymus DNA [3] = assay: Binding affinity to calf thymus DNA at 20 uM by UV spectroscopy; format: nucleic-acid assay; settings: Bos taurus
smiles,measurement,setting,value
CCCCn1c2ccccc2c2cc(CNCCCN(C)C)nc(-c3cc(OC)c(OC)c(OC)c3)c21,IC50,CWR22R,10.8 µM
same,IC50,A-375,11 µM
same,IC50,786-0,6 µM
same,IC50,HepG2,8.2 µM
same,IC50,HT-29,11.3 µM
same,IC50,KB,33.5 µM
same,IC50,BGC-823,6.8 µM
same,IC50,MCF7,9.3 µM
same,IC50,769-P,7.3 µM
same,IC50,OS-RC-2,25.6 µM
CC(=O)O[C@H]1C(=O)[C@@]2(C)[C@H]([C@H](OC(=O)c3ccccc3)[C@]3(O)C[C@H](OC(=O)[C@H](O)[C@@H](NC(=O)c4ccccc4)c4ccccc4)C(C)=C1C3(C)C)[C@]1(OC(C)=O)CO[C@@H]1C[C@@H]2O [PACLITAXEL],IC50,786-0,< 0.08 µM
same,IC50,HepG2,< 0.08 µM
same,IC50,KB,0.08 µM
same,IC50,BGC-823,1.5 µM
same,IC50,OS-RC-2,< 0.08 µM
CCCCn1c2ccccc2c2cc(CNCCCCN(CC)CC)nc(-c3cc(OC)c(OC)c(OC)c3)c21,IC50,CWR22R,8.5 µM
same,IC50,A-375,11 µM
same,IC50,786-0,11 µM
same,IC50,HepG2,2.5 µM
same,IC50,HT-29,19.8 µM
same,IC50,KB,7.6 µM
same,IC50,BGC-823,19.2 µM
same,IC50,MCF7,5.3 µM
same,IC50,769-P,11.6 µM
same,IC50,OS-RC-2,28.7 µM
COc1cc(-c2nc(CNCCCN(C)C)cc3c2[nH]c2ccccc23)cc(OC)c1OC,IC50,CWR22R,> 50 µM
same,IC50,A-375,> 50 µM
same,IC50,786-0,> 50 µM
same,IC50,HepG2,42.7 µM
same,IC50,HT-29,> 50 µM
same,IC50,KB,> 50 µM
same,IC50,BGC-823,> 50 µM
same,IC50,MCF7,> 50 µM
same,IC50,769-P,> 50 µM
same,IC50,OS-RC-2,> 50 µM
CCCCn1c2ccccc2c2cc(CNCCCN(CC)CC)nc(-c3cc(OC)c(OC)c(OC)c3)c21,ΔTm,Calf thymus DNA [1],14.8 °C
same,IC50,CWR22R,4.2 µM
same,Activity,Calf thymus DNA [2],Active
same,IC50,A-375,11.3 µM
same,IC50,786-0,7.7 µM
same,IC50,HepG2,8.5 µM
same,IC50,HT-29,14 µM
same,IC50,KB,37.3 µM
same,IC50,BGC-823,6.1 µM
same,IC50,MCF7,6.8 µM
same,IC50,769-P,7.5 µM
same,Activity,Calf thymus DNA [3],Active
same,IC50,OS-RC-2,25.7 µM
CCN(CC)CCCNCc1cc2c3ccccc3n(CCCc3ccccc3)c2c(-c2cc(OC)c(OC)c(OC)c2)n1,ΔTm,Calf thymus DNA [1],14.6 °C
same,IC50,CWR22R,7 µM
same,Activity,Calf thymus DNA [2],Active
same,IC50,A-375,2.6 µM
same,IC50,786-0,4.7 µM
same,IC50,HepG2,1.7 µM
same,IC50,HT-29,5.9 µM
same,IC50,KB,6.5 µM
same,IC50,BGC-823,5.9 µM
same,IC50,MCF7,4.9 µM
same,IC50,769-P,2.7 µM
same,Activity,Calf thymus DNA [3],Active
same,IC50,OS-RC-2,8.3 µM
COc1cc(-c2nc(CNCCCN(C)C)cc3c4ccccc4n(CCCc4ccccc4)c23)cc(OC)c1OC,IC50,CWR22R,10 µM
same,IC50,A-375,3.7 µM
same,IC50,786-0,6 µM
same,IC50,HepG2,3.9 µM
same,IC50,HT-29,7.9 µM
same,IC50,KB,4.4 µM
same,IC50,BGC-823,8.5 µM
same,IC50,MCF7,6.7 µM
same,IC50,769-P,10.4 µM
same,IC50,OS-RC-2,9.4 µM
CCN(CC)CCCNCc1cc2c([nH]c3ccccc32)c(-c2cc(OC)c(OC)c(OC)c2)n1,ΔTm,Calf thymus DNA [1],24.8 °C
same,IC50,CWR22R,> 50 µM
same,IC50,A-375,> 50 µM
same,IC50,786-0,> 50 µM
same,IC50,HepG2,39.6 µM
same,IC50,HT-29,> 50 µM
same,IC50,KB,> 50 µM
same,IC50,BGC-823,> 50 µM
same,IC50,MCF7,> 50 µM
same,IC50,769-P,> 50 µM
same,IC50,OS-RC-2,46.8 µM
CCN(CC)CCNCc1cc2c3ccccc3n(CCCc3ccccc3)c2c(-c2cc(OC)c(OC)c(OC)c2)n1,IC50,CWR22R,18.9 µM
same,IC50,A-375,12 µM
same,IC50,786-0,3.4 µM
same,IC50,HepG2,3.8 µM
same,IC50,HT-29,10.9 µM
same,IC50,KB,2.5 µM
same,IC50,BGC-823,2.7 µM
same,IC50,MCF7,8.1 µM
same,IC50,769-P,3 µM
same,IC50,OS-RC-2,3 µM
CCN(CC)CCCNCc1cc2c3ccccc3n(C)c2c(-c2cc(OC)c(OC)c(OC)c2)n1,ΔTm,Calf thymus DNA [1],17.3 °C
same,IC50,CWR22R,> 50 µM
same,Activity,Calf thymus DNA [2],Active
same,IC50,A-375,48.4 µM
same,IC50,786-0,12.1 µM
same,IC50,HepG2,8.2 µM
same,IC50,HT-29,43.1 µM
same,IC50,KB,29 µM
same,IC50,BGC-823,48.5 µM
same,IC50,MCF7,28.3 µM
same,IC50,769-P,34.6 µM
same,Activity,Calf thymus DNA [3],Active
same,IC50,OS-RC-2,> 50 µM
CCN(CC)CCCCNCc1cc2c3ccccc3n(CCCc3ccccc3)c2c(-c2cc(OC)c(OC)c(OC)c2)n1,IC50,CWR22R,6.3 µM
same,IC50,A-375,3.7 µM
same,IC50,786-0,5.5 µM
same,IC50,HepG2,2.1 µM
same,IC50,HT-29,7.5 µM
same,IC50,KB,6.9 µM
same,IC50,BGC-823,6.1 µM
same,IC50,MCF7,5.2 µM
same,IC50,769-P,3.9 µM
same,IC50,OS-RC-2,8.7 µM
COc1cccc2c1C(=O)c1c(O)c3c(c(O)c1C2=O)C[C@@](O)(C(=O)CO)C[C@@H]3O[C@H]1C[C@H](N)[C@H](O)[C@H](C)O1,ΔTm,Calf thymus DNA [1],32 °C
CCN(CC)CCCCNCc1cc2c3ccccc3n(C)c2c(-c2cc(OC)c(OC)c(OC)c2)n1,IC50,CWR22R,> 50 µM
same,IC50,A-375,> 50 µM
same,IC50,786-0,20.7 µM
same,IC50,HepG2,7.1 µM
same,IC50,HT-29,> 50 µM
same,IC50,KB,42.8 µM
same,IC50,BGC-823,46.3 µM
same,IC50,MCF7,36.5 µM
same,IC50,769-P,19.1 µM
same,IC50,OS-RC-2,> 50 µM
CCN(CC)CCNCc1cc2c3ccccc3n(C)c2c(-c2cc(OC)c(OC)c(OC)c2)n1,IC50,CWR22R,> 50 µM
same,IC50,A-375,> 50 µM
same,IC50,786-0,33.7 µM
same,IC50,HepG2,14.8 µM
same,IC50,HT-29,> 50 µM
same,IC50,KB,> 50 µM
same,IC50,BGC-823,> 50 µM
same,IC50,MCF7,> 50 µM
same,IC50,769-P,> 50 µM
same,IC50,OS-RC-2,> 50 µM
CCCCn1c2ccccc2c2cc(CNCCN(CC)CC)nc(-c3cc(OC)c(OC)c(OC)c3)c21,IC50,CWR22R,8.9 µM
same,IC50,A-375,14.5 µM
same,IC50,786-0,13.9 µM
same,IC50,HepG2,18.6 µM
same,IC50,HT-29,> 50 µM
same,IC50,KB,44.9 µM
same,IC50,BGC-823,13.9 µM
same,IC50,MCF7,> 50 µM
same,IC50,769-P,14.5 µM
same,IC50,OS-RC-2,45.4 µM
COc1cc(-c2nc(CNCCCN(C)C)cc3c4ccccc4n(C)c23)cc(OC)c1OC,IC50,CWR22R,> 50 µM
same,IC50,A-375,> 50 µM
same,IC50,786-0,30.2 µM
same,IC50,HepG2,15.4 µM
same,IC50,HT-29,> 50 µM
same,IC50,KB,> 50 µM
same,IC50,BGC-823,> 50 µM
same,IC50,MCF7,17.1 µM
same,IC50,769-P,> 50 µM
same,IC50,OS-RC-2,> 50 µM
